From ChEMBL document CHEMBL6078673, “Synthesis and anti-tumor activity of menthylamine derivatives: Focusing on the potent inhibitory effect of compound W8 on glioma growth” (Bioorg Med Chem, 2025)
pIC50: −log10 of the molar value. In brackets after ≈: the same amount, converted by molar mass. Activity calls are given as the source filed them. The rule behind the calls is not given here.

How the values were obtained:
[1] = test system: U-87 MG; test: Inhibition of cell invasion in human U87 cells incubated for 48 hrs by crystal violet staining based microscopic analysis; type: functional; conditions: U-87MG ATCC
[2] = Toxicity in Balb/c mouse xenografted with human U87 cells assessed as histological change in heart at 10 mg/kg,ip administered every 3 days measured after 27 days by hematoxylin and eosin staining based assay; type: organism-based; conditions: in vivo, 648 h, time 27 day
[3] = test system: U-87 MG; test: Induction of cell cycle arrest in human U87 cells assessed as increase in number of cells at S phase at 80 uM incubated for 24 hrs by RNase/PI staining based flow cytometry; type: functional; conditions: U-87MG ATCC
[4] = Toxicity in Balb/c mouse xenografted with human U87 cells assessed as histological change in spleen at 10 mg/kg,ip administered every 3 days measured after 27 days by TUNEL staining based assay; type: organism-based; conditions: in vivo, 648 h, time 27 day
[5] = Toxicity in Balb/c mouse xenografted with human U87 cells assessed as body weight loss at 10 mg/kg,ip administered every 3 days measured after 27 days; type: organism-based; conditions: in vivo, 648 h, time 27 day
[6] = Toxicity in Balb/c mouse xenografted with human U87 cells assessed as histological change in kidney at 10 mg/kg,ip administered every 3 days measured after 27 days by hematoxylin and eosin staining based assay; type: organism-based; conditions: in vivo, 648 h, time 27 day
[7] = test system: MCF7; test: Antiproliferative activity against human MCF7 cells assessed as inhibition of cell growth incubated for 24 hrs by CCK-8 assay; type: functional, cell-based; conditions: MCF7, 24 h
[8] = Toxicity in Balb/c mouse xenografted with human U87 cells assessed as histological change in lung at 10 mg/kg,ip administered every 3 days measured after 27 days by TUNEL staining based assay; type: organism-based; conditions: in vivo, 648 h, time 27 day
[9] = Efflux ratio of apparent permeability from basolateral to apical side over apical to basolateral side in human Caco-2 cells at 2 uM incubated for 2 hr by LC-MS/MS analysis; type: ADME, cell-based; conditions: Caco-2
[10] = test system: U-87 MG; test: Antitumor activity in human U87 cells assessed as upregulation of cleaved caspase-3 expression at 80 uM incubated for 24 hrs by Western blotting analysis; type: functional, cell-based; conditions: U-87MG ATCC
[11] = test system: U-87 MG; test: Antitumor activity against human U87 cells xenografted in Balb/c mouse assessed as reduction in tumor size at 10 mg/kg,ip administered every 3 days measured after 27 days; type: functional, organism-based; conditions: U-87MG ATCC, time 27.0 day
[12] = test system: U-87 MG; test: Induction of apoptosis in human U87 cells assessed as increase in number of apoptotic cells at 80 uM incubated for 24 hrs by Annexin V-FITC/PI staining based flow cytometry; type: functional, cell-based; conditions: U-87MG ATCC
[13] = test system: HUVEC; test: Antiangiogenesis activity in human HUVEC cells assessed as inhibition of vascular structure formation at 80 uM incubated for 12 hrs by inverted fluorescence microscopic analysis; type: functional, cell-based
[14] = test system: U-87 MG; test: Antiproliferative activity against human U87 cells assessed as inhibition of cell growth incubated for 24 hrs by CCK-8 assay; type: functional, cell-based, U-87MG ATCC
[15] = Toxicity in Balb/c mouse xenografted with human U87 cells assessed as histological change in lung at 10 mg/kg,ip administered every 3 days measured after 27 days by hematoxylin and eosin staining based assay; type: organism-based; conditions: in vivo, 648 h, time 27 day
[16] = Toxicity in Balb/c mouse xenografted with human U87 cells assessed as histological change in kidney at 10 mg/kg,ip administered every 3 days measured after 27 days by TUNEL staining based assay; type: organism-based; conditions: in vivo, 648 h, time 27 day
[17] = test system: U-87 MG; test: Induction of apoptosis in human U87 cells assessed as increase in number of late apoptotic cells at 80 uM incubated for 24 hrs by Annexin V-FITC/PI staining based flow cytometry; type: functional, cell-based; conditions: U-87MG ATCC
[18] = Toxicity in Balb/c mouse xenografted with human U87 cells assessed as histological change in liver at 10 mg/kg,ip administered every 3 days measured after 27 days by TUNEL staining based assay; type: organism-based; conditions: in vivo, 648 h, time 27 day
[19] = Metabolic stability in liver microsomes (unknown origin) assessed as half life incubated for 60 mins by LC-MS/MS analysis; type: ADME, Microsome
[20] = Toxicity in Balb/c mouse xenografted with human U87 cells assessed as histological change in liver at 10 mg/kg,ip administered every 3 days measured after 27 days by hematoxylin and eosin staining based assay; type: organism-based; conditions: in vivo, 648 h, time 27 day
[21] = test system: HCT-116; test: Antiproliferative activity against human HCT-116 cells assessed as inhibition of cell growth incubated for 24 hrs by CCK-8 assay; type: functional, cell-based; conditions: HCT-116, 24 h
[22] = test system: U-87 MG; test: Induction of cell cycle arrest in human U87 cells assessed as decrease in number of cells at G1 phase at 80 uM incubated for 24 hrs by RNase/PI staining based flow cytometry; type: functional; conditions: U-87MG ATCC
[23] = test system: U-87 MG; test: Induction of cell cycle arrest in human U87 cells assessed as decrease in number of cells at G2 phase at 80 uM incubated for 24 hrs by RNase/PI staining based flow cytometry; type: functional; conditions: U-87MG ATCC
[24] = Apparent permeability across basolateral to apical side in human Caco-2 cells at 2 uM incubated for 2 hrs by LC-MS/MS analysis; type: ADME, cell-based; conditions: Caco-2
[25] = Kinetic solubility in PBS at pH 7.4 incubated under shaking condition for 24 hrs by LC-MS/MS analysis; type: physicochemical; conditions: read-out: Kinetic_solubility
[26] = test system: U-87 MG; test: Induction of apoptosis in human U87 cells assessed as increase in number of early apoptotic cells at 80 uM incubated for 24 hrs by Annexin V-FITC/PI staining based flow cytometry; type: functional, cell-based; conditions: U-87MG ATCC
[27] = Toxicity in Balb/c mouse xenografted with human U87 cells assessed as histological change in brain at 10 mg/kg,ip administered every 3 days measured after 27 days by hematoxylin and eosin staining based assay; type: organism-based; conditions: in vivo, 648 h, time 27 day
[28] = test system: U-87 MG; test: Inhibition of cell migration in human U87 cells at 80 uM incubated for 48 hrs by scratch assay; type: functional, cell-based; conditions: U-87MG ATCC
[29] = test system: KYSE-150 cell line; test: Antiproliferative activity against human KYSE-150 cell line assessed as inhibition of cell growth incubated for 24 hrs by CCK-8 assay; type: functional, cell-based; conditions: KYSE-150, 24 h
[30] = Apparent permeability across apical to basolateral side in human Caco-2 cells at 2 uM incubated for 2 hrs by LC-MS/MS analysis; type: ADME, cell-based; conditions: Caco-2
[31] = test system: U-87 MG; test: Antitumor activity in human U87 cells assessed as downregulation of […] expression at 80 uM incubated for 24 hrs by Western blotting analysis; type: functional, cell-based; conditions: U-87MG ATCC
[32] = Toxicity in Balb/c mouse xenografted with human U87 cells assessed as histological change in brain at 10 mg/kg,ip administered every 3 days measured after 27 days by TUNEL staining based assay; type: organism-based; conditions: in vivo, 648 h, time 27 day
[33] = Toxicity in Balb/c mouse xenografted with human U87 cells assessed as histological change in spleen at 10 mg/kg,ip administered every 3 days measured after 27 days by hematoxylin and eosin staining based assay; type: organism-based; conditions: in vivo, 648 h, time 27 day
[34] = Toxicity in Balb/c mouse xenografted with human U87 cells assessed as histological change in heart at 10 mg/kg,ip administered every 3 days measured after 27 days by TUNEL staining based assay; type: organism-based; conditions: in vivo, 648 h, time 27 day
[35] = test system: U-87 MG; test: Induction of apoptosis in human U87 cells at 80 uM incubated for 24 hrs by Annexin V-FITC/PI staining based flow cytometry; type: functional, U-87MG ATCC
[36] = test system: U-87 MG; test: Induction of apoptosis in human U87 cells assessed as increase in number of necrotic cells at 80 uM incubated for 24 hrs by Annexin V-FITC/PI staining based flow cytometry; type: functional, cell-based; conditions: U-87MG ATCC
[37] = Metabolic stability in liver microsomes (unknown origin) assessed as compound remaining incubated for 60 mins by LC-MS/MS analysis; type: ADME, Microsome; conditions: read-out: Stability
[38] = test system: U-87 MG; test: Antitumor activity in human U87 cells assessed as downregulation of ANGP-2 expression at 80 uM incubated for 24 hrs by Western blotting analysis; type: functional, cell-based; conditions: U-87MG ATCC
[39] = test system: U-87 MG; test: Antitumor activity in human U87 cells assessed as downregulation of CD133 expression at 80 uM incubated for 24 hrs by Western blotting analysis; type: functional, cell-based; conditions: U-87MG ATCC
[40] = test system: U-87 MG; test: Antiangiogenesis activity in human U87 cells assessed as inhibition of neovascularization at 80 uM incubated for 12 hrs by inverted fluorescence microscopic analysis; type: functional, cell-based; conditions: U-87MG ATCC
[41] = test system: U-87 MG; test: Antitumor activity in human U87 cells assessed as downregulation of VEGFR2 expression at 80 uM incubated for 24 hrs by Western blotting analysis; type: functional, cell-based; conditions: U-87MG ATCC

## CC(C)[C@H]1CC[C@@H](C)C[C@@H]1N1C(=O)c2ccccc2C1=O
[1]
  inhibition: Active
[2]
  Activity: Non-toxic
[3]
  Activity: inactive
[4]
  Activity: Non-toxic
[5]
  Activity: Non-toxic
[6]
  Activity: Non-toxic
[7]
  pIC50: 2.83
[8]
  Activity: Non-toxic
[9]
  efflux ratio at 2 h, 2 µM: 0.52
[10]
  Activity: Active
[11]
  Activity: Active
[12]
  Activity: Active; Significantly Increased Activity Observed
[13]
  Activity: Active
[14]
  pIC50: 4.18
[15]
  Activity: Non-toxic
[16]
  Activity: Non-toxic
[17]
  Activity: Active
[18]
  Activity: Non-toxic
[19]
  half-life: > 2.42 h
[20]
  Activity: Non-toxic
[21]
  pIC50: 4.24
[22]
  Activity: inactive
[23]
  Activity: inactive
[24]
  Papp B→A at 2 h, 2 µM: 13.3 ×10⁻⁶ cm/s
[25]
  solubility kinetic at 24 h: 0.03 µM (≈ 8.56 ng/mL)
[26]
  Activity: Active
[27]
  Activity: Non-toxic
[28]
  inhibition: Active
[29]
  pIC50: 3.01
[30]
  Papp A→B at 2 h, 2 µM: 25.7 ×10⁻⁶ cm/s
[31]
  Activity: Active
[32]
  Activity: Non-toxic
[33]
  Activity: Non-toxic
[34]
  Activity: Non-toxic
[35]
  Activity: 90%
[36]
  Activity: Active
[37]
  remaining at 1 h: 82.8%
[38]
  Activity: Active
[39]
  Activity: Active
[40]
  Activity: Active
[41]
  Activity: Active
